Experimental data: patent US20210260145A1, “PHARMACEUTICAL COMPOSITION FOR ALLEVIATING EYE FATIGUE, CONTAINING, AS ACTIVE INGREDIENTS, LUTEOLIN-7-O-DIGLUCURONIDE AND APIGENIN-7-O-DIGLUCURONIDE ISOLATED FROM PERILLA FRUTESCENS (L.) BRITTON VAR. ACUTA (THUNB.) KUDO LEAF EXTRACT” (JEONNAM BIOINDUSTRY FOUNDATION, priority 2018, published 2021)

Tested on: Ciliary muscle cells (rCSMCs) isolated from rat's eyes
Assay: cGMP content in rat ciliary muscle cells, isolated compounds (ELISA)
Format: cell-based
Conditions: compounds 0.01, 0.05, 0.1, 1 μg/mL, 15 minutes
Description: Ciliary muscle cells ([…]) isolated from rat's eyes were dispensed into 6 wells at 5×10^5 cells/well and stabilized for one day. After stabilization, 3-isobuytyl-1-methylxanthine (1 mM) was pre-treated for 10 minutes, and then luteolin-7-O-diglucuronide and apigenin-7-O-diglucuronide compounds isolated from the Perilla frutescens (L.) Britton var. acuta (Thunb.) Kudo leaf extract were reacted for 15 minutes at concentrations of 0.01, 0.05, 0.1, and 1 μg/mL. The cGMP contents of these compounds were measured using an ELISA kit.

Row | Compound | cGMP content
1 | O=C(O)[C@H]1O[C@@H](O[C@H]2[C@H](Oc3cc(O)c4c(=O)cc(-c5ccc(O)cc5)oc4c3)O[C@H](C(=O)O)[C@@H](O)[C@@H]2O)[C@H](O)[C@@H](O)[C@@H]1O [apigenin-7-O-diglucuronide] | increasing the cGMP content
2 | luteolin-7-O-diglucuronide | increasing the cGMP content
